According to patent US8962630B2, “Pyrrolopyrimidine compounds and their uses” (Novartis AG, priority 2008, dated 2015):

Key:
Format in all cases: biochemical
CDK4/cyclin D1 = CDK4/cyclin D1 (Homo sapiens (Human), UniProt P11802); assay: CDK4/Cyclin D1 enzymatic activity assay (Lance TR-FRET); conditions: Table 2; 3 μM ATP; read-out: CDK4
Description: A 384-well microtiter Lance TR-FRET (time-resolved-fluorescence energy transfer) endpoint assay was used for CDK4/cyclin D1 kinase activity measurements. The same assay was used for IC50 determination of small molecule inhibitors. In general, the kinase reactions were carried out in 30 μL volumes in the reaction solution containing the following: 2 uL compound (in […]), 18 uL CDK4/cyclin D1 in Assay Buffer (50 mM HEPES, pH 7.5, 5 mM MgCl2, 2 mM MnCl2, 1 mM DTT, 0.05% BSA, 0.02% Tween-20), 10 uL of the mixture of pRb152 and ATP. The final reaction mixture contains compound (inhibitor) with the concentration varying from 0.005-10 μM, 2% DMSO, 0.3 nM CDK4/cyclin D1, 175 nM pRb152, and 3 μM ATP (Amersham Pharmacia, Cat. No. 27-2056-01). All reactions were run at room temperature in 384-well white flat-bottom OptiPlates (Perkin Elmer, Cat. No. 6007290) for 60 min then were quenched by the addition of 10 μL of 120 mM EDTA. The signals were captured by the addition of 40 μL of the Detection Solution containing the following: Detection Buffer (50 mM HEPES, pH 7.5, 30 mM EDTA, 0.1% Triton x-100, 0.05% BSA), 70 ng/mL anti-phospho-pRb(S780) (Cell Signaling Technology, Cat. No. 9307S), 1 nM Lance Eu-W1024-Rabbit anti-IgG (Perkin Elmer, Cat. No. AD0082), and 20 nM SureLight™ Allophycocyanin-Streptavidin (Perkin Elmer, Cat. No. CR130-100). The resulted solutions were incubated at room temperature for 2 hours before read on the Evision Multilabel Reader (Perkin Elmer, Envision 2102-0010).
CDk4/cyclin D1 recombinant protein used in the enzymatic activity assay was prepared by coexpressing pDEST10-CDK4 (N-terminal His6) and pFastBacDual-GST-hCyclinDl viruses in Sf21 cells.

CDK1/cyclin B = CDK1/cyclin B (Homo sapiens (Human), UniProt P06493); assay: CDK1/Cyclin B enzymatic activity assay (IMAP-FP); conditions: Table 2; 20 μM ATP; read-out: CDK1
Source text: A 384-well microtiter IMAP-FPT™ (Molecular Devices Trade Mark Technology) endpoint assay was used for CDK1/cyclin B kinase activity measurements. The same assay was used for IC50 determination of small molecule inhibitors.

CDK2/cyclin A = CDK2/cyclin A (Homo sapiens (Human), UniProt P24941); assay: CDK2/Cyclin A enzymatic activity assay (IMAP-FP); conditions: Table 2; read-out: CDK2

CDK1/cyclin B, sequence (P06493 whole entry, species assumed): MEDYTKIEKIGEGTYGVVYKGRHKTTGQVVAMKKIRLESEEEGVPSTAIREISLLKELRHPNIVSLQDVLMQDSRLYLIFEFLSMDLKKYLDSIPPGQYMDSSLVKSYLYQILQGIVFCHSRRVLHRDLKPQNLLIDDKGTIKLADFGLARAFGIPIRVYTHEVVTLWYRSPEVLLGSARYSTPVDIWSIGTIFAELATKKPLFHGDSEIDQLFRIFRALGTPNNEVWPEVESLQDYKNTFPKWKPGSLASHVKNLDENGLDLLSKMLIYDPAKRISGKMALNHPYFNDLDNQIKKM
CDK1/cyclin B, sequence (P14635 whole entry partner, species assumed): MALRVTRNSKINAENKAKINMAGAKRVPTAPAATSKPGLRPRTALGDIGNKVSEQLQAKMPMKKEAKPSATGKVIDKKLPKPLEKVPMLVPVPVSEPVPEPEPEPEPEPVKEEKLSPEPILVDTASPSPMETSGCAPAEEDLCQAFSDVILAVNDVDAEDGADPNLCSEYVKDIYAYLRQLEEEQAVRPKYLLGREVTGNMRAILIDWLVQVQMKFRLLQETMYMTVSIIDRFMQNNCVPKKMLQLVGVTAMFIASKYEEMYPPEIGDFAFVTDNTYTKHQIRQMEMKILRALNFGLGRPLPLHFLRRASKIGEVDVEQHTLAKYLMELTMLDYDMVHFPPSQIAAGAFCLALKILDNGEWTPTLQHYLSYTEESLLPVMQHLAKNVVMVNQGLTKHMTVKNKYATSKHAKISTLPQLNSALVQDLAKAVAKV
CDK4/cyclin D1, sequence (P11802 whole entry): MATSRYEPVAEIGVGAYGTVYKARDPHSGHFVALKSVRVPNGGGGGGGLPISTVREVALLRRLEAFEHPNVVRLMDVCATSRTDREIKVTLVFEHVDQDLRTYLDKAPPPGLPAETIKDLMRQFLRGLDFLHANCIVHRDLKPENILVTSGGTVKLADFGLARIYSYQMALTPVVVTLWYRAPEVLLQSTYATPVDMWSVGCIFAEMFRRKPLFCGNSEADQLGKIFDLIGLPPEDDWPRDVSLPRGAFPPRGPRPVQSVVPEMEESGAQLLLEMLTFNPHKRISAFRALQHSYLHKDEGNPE
CDK4/cyclin D1, sequence (P24385 whole entry partner): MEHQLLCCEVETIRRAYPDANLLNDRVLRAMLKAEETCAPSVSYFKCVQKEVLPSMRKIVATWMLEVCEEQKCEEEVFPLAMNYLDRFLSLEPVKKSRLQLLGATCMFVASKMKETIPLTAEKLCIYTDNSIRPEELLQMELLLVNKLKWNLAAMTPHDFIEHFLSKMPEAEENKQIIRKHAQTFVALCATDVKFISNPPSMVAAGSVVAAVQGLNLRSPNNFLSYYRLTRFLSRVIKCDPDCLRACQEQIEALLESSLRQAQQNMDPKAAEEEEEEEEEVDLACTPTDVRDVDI

For `CN(C)C(=O)c1cc2cnc(Nc3ccc(N4CCC(N)C4)cn3)nc2n1C1CCCC1` (racemic) [Example 13, Rac-2-[5-(3-Amino-pyrrolidin-1-yl)-pyridin-2-ylamino]-7-cyclopentyl-7H-pyrrolo[2,3-d]pyrimidine-6-carboxylic acid dimethylamide], the IC50 (CDK4/cyclin D1) was 0.01 to 0.1 µM, the IC50 (CDK1/cyclin B) was > 15 µM and the IC50 (CDK2/cyclin A) was > 15 µM.
For `CN(C)C(=O)c1cc2cnc(Nc3ccccn3)nc2n1C1CCCC1` [Example 1, 7-Cyclopentyl-2-(pyridin-2-ylamino)-7H-pyrrolo[2,3-d]pyrimidine-6-carboxylic acid dimethylamide], the IC50 (CDK4/cyclin D1) was 0.1 to 1 µM, the IC50 (CDK1/cyclin B) was > 15 µM and the IC50 (CDK2/cyclin A) was > 15 µM.
`CN(C)C(=O)c1cc2cnc(Nc3ccc(C(=O)NC4CCNCC4)cn3)nc2n1C1CCCC1` [Example 3, 7-Cyclopentyl-2-[5-(piperidin-4-ylcarbamoyl)-pyridin-2-ylamino]-7H-pyrrolo[2,3-d]pyrimidine-6-carboxylic acid dimethylamide] was tested, and the IC50 (CDK4/cyclin D1) was 0.01 to 0.1 µM, the IC50 (CDK1/cyclin B) was > 15 µM and the IC50 (CDK2/cyclin A) was > 15 µM.
`CN(C)C(=O)c1cc2cnc(Nc3ccc(N4CCNC(=O)C4)cn3)nc2n1C1CCCC1` [Example 4, 7-Cyclopentyl-2-[5-(3-oxo-piperazin-1-yl)-pyridin-2-ylamino]-7H-pyrrolo[2,3-d]pyrimidine-6-carboxylic acid dimethylamide] was tested, and the IC50 (CDK4/cyclin D1) was 0.01 to 0.1 µM, the IC50 (CDK1/cyclin B) was > 15 µM and the IC50 (CDK2/cyclin A) was > 15 µM.
`CN(C)C(=O)c1cc2cnc(Nc3ccc(N4CCC(N(C)C)CC4)cn3)nc2n1C1CCCC1` [Example 6, 7-Cyclopentyl-2-(4-dimethylamino-3,4,5,6-tetrahydro-2-[1,3′]bipyridinyl-6′-ylamino)-7H-pyrrolo[2,3-d]pyrimidine-6-carboxylic acid dimethylamide] was tested, and the IC50 (CDK4/cyclin D1) was 0.001 to 0.01 µM, the IC50 (CDK1/cyclin B) was > 15 µM and the IC50 (CDK2/cyclin A) was > 15 µM.
With `CC(=O)N1CCN(c2ccc(Nc3ncc4cc(C(=O)N(C)C)n(C5CCCC5)c4n3)nc2)CC1` [Example 7, 2-[5-(4-Acetylpiperazin-1-yl)-pyridin-2-ylamino]-7-cyclopentyl-7H-pyrrolo[2,3-d]pyrimidine-6-carboxylic acid dimethylamide] the IC50 (CDK4/cyclin D1) was 0.01 to 0.1 µM, the IC50 (CDK1/cyclin B) was > 15 µM and the IC50 (CDK2/cyclin A) was > 15 µM.
In the case of `CN(C)C(=O)c1cc2cnc(Nc3ccc(N4CCCNCC4)cn3)nc2n1C1CCCC1` [Example 8, 7-Cyclopentyl-2-(5-[1,4]diazepan-1-yl-pyridin-2-ylamino)-7H-pyrrolo[2,3-d]pyrimidine-6-carboxylic acid dimethylamide], the IC50 (CDK4/cyclin D1) is reported as 0.01 to 0.1 µM, the IC50 (CDK1/cyclin B) is reported as 14 µM and the IC50 (CDK2/cyclin A) is reported as 8 µM.
For `CN(C)C(=O)c1cc2cnc(Nc3ccc(N4CCN(CCC#N)CC4)cn3)nc2n1C1CCCC1` [Example 9, 2-{5-[4-(2-Cyano-ethyl)-piperazin-1-yl]-pyridin-2-ylamino}-7-cyclopentyl-7H-pyrrolo[2,3-d]pyrimidine-6-carboxylic acid dimethylamide], the IC50 (CDK4/cyclin D1) was 0.01 to 0.1 µM, the IC50 (CDK1/cyclin B) was > 15 µM and the IC50 (CDK2/cyclin A) was > 15 µM.
In the case of `CN(C)C(=O)c1cc2cnc(Nc3ccc(N4CCN(CC(N)=O)CC4)cn3)nc2n1C1CCCC1` [Example 10, 2-[5-(4-Carbamoylmethyl-piperazin-1-yl)-pyridin-2-ylamino]-7-cyclopentyl-7H-pyrrolo[2,3-d]pyrimidine-6-carboxylic acid dimethylamide], the IC50 (CDK4/cyclin D1) is reported as 0.01 to 0.1 µM, the IC50 (CDK1/cyclin B) is reported as > 15 µM and the IC50 (CDK2/cyclin A) is reported as > 15 µM.
With `CN(C)C(=O)c1cc2cnc(Nc3ccc(CN4CC(O)C4)cn3)nc2n1C1CCCC1` [Example 10A, 7-Cyclopentyl-2-[5-(3-hydroxy-azetidin-1-ylmethyl)-pyridin-2-ylamino]-7H-pyrrolo[2,3-d]pyrimidine-6-carboxylic acid dimethylamide] the IC50 (CDK4/cyclin D1) was 0.01 to 0.1 µM, the IC50 (CDK1/cyclin B) was 12 µM and the IC50 (CDK2/cyclin A) was 14 µM.
`c1ncc(-c2cc3cnc(Nc4ccc(N5CCNCC5)cn4)nc3n2C2CCCC2)o1` [Example 11, (7-Cyclopentyl-6-oxazol-5-yl-7H-pyrrolo[2,3-d]pyrimidin-2-yl)-(5-piperazin-1-yl-pyridin-2-yl)-amine] showed an IC50 (CDK4/cyclin D1) of 0.001 to 0.01 µM, an IC50 (CDK1/cyclin B) of 1.3 µM and an IC50 (CDK2/cyclin A) of 3.5 µM.
With `CN(C)C(=O)c1cc2cnc(Nc3ccc(N4CCN(C(=O)CN)CC4)cn3)nc2n1C1CCCC1` [Example 12, 2-{5-[4-(2-Amino-acetyl)-piperazin-1-yl]-pyridin-2-ylamino}-7-cyclopentyl-7H-pyrrolo[2,3-d]pyrimidine-6-carboxylic acid dimethylamide] the IC50 (CDK4/cyclin D1) was 0.01 to 0.1 µM, the IC50 (CDK1/cyclin B) was > 15 µM and the IC50 (CDK2/cyclin A) was > 15 µM.
With `COCCN1CCN(c2ccc(Nc3ncc4cc(C(=O)N(C)C)n(C5CCCC5)c4n3)nc2)CC1` [Example 14, 7-Cyclopentyl-2-{5-[4-(2-methoxy-ethyl)-piperazin-1-yl]-pyridin-2-ylamino}-7H-pyrrolo[2,3-d]pyrimidine-6-carboxylic acid dimethylamide] the IC50 (CDK4/cyclin D1) was 0.01 to 0.1 µM, the IC50 (CDK1/cyclin B) was > 15 µM and the IC50 (CDK2/cyclin A) was > 15 µM.
In the case of `CN(C)C(=O)c1cc2cnc(Nc3cnc(N4CCN(CCO)CC4)cn3)nc2n1C1CCCC1` [Example 15, 7-Cyclopentyl-2-[4-(2-hydroxy-ethyl)-3,4,5,6-tetrahydro-2H-[1,2]′bipyrazinyl-5′-ylamino]-7H-pyrrolo[2,3-d]pyrimidine-6-carboxylic acid dimethylamide], the IC50 (CDK4/cyclin D1) is reported as 0.1 to 1 µM, the IC50 (CDK1/cyclin B) is reported as > 15 µM and the IC50 (CDK2/cyclin A) is reported as > 15 µM.
For `C[C@@H]1CN(c2ccc(Nc3ncc4cc(C(=O)N(C)C)n(C5CCCC5)c4n3)nc2)CCN1` [Example 16, 7-Cyclopentyl-2-[5-((R)-3-methyl-piperazin-1-yl)-pyridin-2-ylamino]-7H-pyrrolo[2,3-d]pyrimidine-6-carboxylic acid dimethylamide], the IC50 (CDK4/cyclin D1) was 0.001 to 0.01 µM, the IC50 (CDK1/cyclin B) was > 15 µM and the IC50 (CDK2/cyclin A) was > 15 µM.
In the case of `C[C@H]1CN(c2ccc(Nc3ncc4cc(C(=O)N(C)C)n(C5CCCC5)c4n3)nc2)CCN1` [Example 17, 7-Cyclopentyl-2-[5-((S)-3-methyl-piperazin-1-yl)-pyridin-2-ylamino]-7H-pyrrolo[2,3-d]pyrimidine-6-carboxylic acid dimethylamide], the IC50 (CDK4/cyclin D1) is reported as 0.01 to 0.1 µM, the IC50 (CDK1/cyclin B) is reported as > 15 µM and the IC50 (CDK2/cyclin A) is reported as > 15 µM.
Compound `c1ncc(-c2cc3cnc(Nc4ccc(CN5CCNCC5)cn4)nc3n2C2CCCC2)o1` [Example 18, (7-Cyclopentyl-6-oxazol-5-yl-7H-pyrrolo[2,3-d]pyrimidin-2-yl)-(5-piperazin-1-ylmethyl-pyridin-2-yl)-amine] has an IC50 (CDK4/cyclin D1) of 0.001 to 0.01 µM, an IC50 (CDK1/cyclin B) of 1.1 µM and an IC50 (CDK2/cyclin A) of 2.8 µM.
With `CC1CN(c2ccc(Nc3ncc4cc(C(=O)N(C)C)n(C5CCCC5)c4n3)nc2)CCN1` (centres unmarked) [Example 19, 7-Cyclopentyl-2-[5-(3-methyl-piperazin-1-yl)-pyridin-2-ylamino]-7H-pyrrolo[2,3-d]pyrimidine-6-carboxylic acid dimethylamide] the IC50 (CDK4/cyclin D1) was 0.001 to 0.01 µM, the IC50 (CDK1/cyclin B) was > 15 µM and the IC50 (CDK2/cyclin A) was > 15 µM.
For `CN(C)C(=O)c1cc2cnc(Nc3ccc(N4CCC(O)CC4)cn3)nc2n1C1CCCC1` [Example 20, 7-Cyclopentyl-2-(4-hydroxy-3,4,5,6-tetrahydro-2H-[1,3′]bipyridinyl-6′-ylamino)-7H-pyrrolo[2,3-d]pyrimidine-6-carboxylic acid dimethylamide], the IC50 (CDK4/cyclin D1) was 0.01 to 0.1 µM, the IC50 (CDK1/cyclin B) was > 15 µM and the IC50 (CDK2/cyclin A) was > 15 µM.
For `CN(C)C(=O)c1cc2cnc(Nc3ccc(N4CCN(CCCO)CC4)cn3)nc2n1C1CCCC1` [Example 21, 7-Cyclopentyl-2-{5-[4-(3-hydroxy-propyl)-piperazin-1-yl]-pyridin-2-ylamino}-7H-pyrrolo[2,3-d]pyrimidine-6-carboxylic acid dimethylamide], the IC50 (CDK4/cyclin D1) was 0.001 to 0.01 µM, the IC50 (CDK1/cyclin B) was > 15 µM and the IC50 (CDK2/cyclin A) was > 15 µM.
With `CN(C)C(=O)c1cc2cnc(Nc3ccc(N4CCN(C(=O)N5CCCC5)CC4)cn3)nc2n1C1CCCC1` [Example 22, 7-Cyclopentyl-2-{5-[4-(pyrrolidine-1-carbonyl)-piperazin-1-yl]-pyridin-2-ylamino}-7H-pyrrolo[2,3-d]pyrimidine-6-carboxylic acid dimethylamide] the IC50 (CDK4/cyclin D1) was 0.01 to 0.1 µM, the IC50 (CDK1/cyclin B) was > 15 µM and the IC50 (CDK2/cyclin A) was > 15 µM.
For `CN(C)C(=O)c1cc2cnc(Nc3ccc(CN4CC5CCC(C4)N5)cn3)nc2n1C1CCCC1` [Example 73, 7-Cyclopentyl-2-[5-(3,8-diaza-bicyclo[3.2.1]oct-3-ylmethyl)-pyridin-2-ylamino]-7H-pyrrolo[2,3-d]pyrimidine-6-carboxylic acid dimethylamide], the IC50 (CDK4/cyclin D1) was 0.01 to 0.1 µM.
For `CN(C)C(=O)c1cc2cnc(Nc3ccc(N4CCNCC4=O)cn3)nc2n1C1CCCC1` [Example 109, 7-cyclopentyl-2-[5-(2-oxopiperazin-1-yl)pyridin-2-ylamino]-7H-pyrrolo[2,3-d]pyrimidine-6-carboxylic acid dimethylamide], the IC50 (CDK4/cyclin D1) was 0.1 to 1 µM.
